Where “and” joins values, the source holds several entries; their conditions need not be identical. Identical values can stand only once. Toxic doses and inconclusive results are not listed.
Test system: BDF1 mice, C1498 leukemia ip, median survival T/C
Test: NCI In Vivo Anticancer Drug Screen. Data for tumor model C1498 Myeloid Leukemia (intraperitoneal) in B6D2F1 (BDF1) mice
Settings: endpoint: median survival time, higher = longer survival
Protocol: The antitumor activity of compounds was measured in mice bearing transplantable tumors. Survival or tumor size were measured and the results are expressed as the measurement made in the treated group (T) divided by the measurement made in the vehicle treated control group (C). The tumor model used in this assay is C1498 Myeloid Leukemia (intraperitoneal) in B6D2F1 (BDF1) mice

[1] = dose: 3.13 mg/kg/injection, schedule: Q01DX010 (ip), vehicle: saline
[2] = dose: 6.25 mg/kg/injection, schedule: Q01DX010 (ip), vehicle: saline
[3] = dose: 25.0 mg/kg/injection, schedule: Q01DX010 (ip), vehicle: saline
[4] = dose: 50.0 mg/kg/injection, schedule: Q01DX010 (ip), vehicle: saline
[5] = dose: 100.0 mg/kg/injection, schedule: Q01DX010 (ip), vehicle: saline
[6] = dose: 200.0 mg/kg/injection, schedule: Q01DX010 (ip), vehicle: saline
[7] = dose: 12.5 mg/kg/injection, schedule: Q01DX010 (ip), vehicle: saline
[8] = dose: 31.3 mg/kg/injection, schedule: Q01DX010 (ip), vehicle: saline
[9] = dose: 62.5 mg/kg/injection, schedule: Q01DX010 (ip), vehicle: saline
[10] = dose: 125.0 mg/kg/injection, schedule: Q01DX010 (ip), vehicle: saline
[11] = dose: 10.0 mg/kg/injection, schedule: Q01DX010 (ip), vehicle: saline
[12] = dose: 20.0 mg/kg/injection, schedule: Q01DX010 (ip), vehicle: saline
[13] = dose: 18.8 mg/kg/injection, schedule: Q01DX010 (ip), vehicle: saline
[14] = dose: 37.5 mg/kg/injection, schedule: Q01DX010 (ip), vehicle: saline
[15] = dose: 75.0 mg/kg/injection, schedule: Q01DX010 (ip), vehicle: saline
[16] = dose: 1.25 mg/kg/injection, schedule: Q01DX010 (ip), vehicle: other
[17] = dose: 2.5 mg/kg/injection, schedule: Q01DX010 (ip), vehicle: other
[18] = dose: 30.0 mg/kg/injection, schedule: Q01DX010 (ip), vehicle: saline
[19] = dose: 60.0 mg/kg/injection, schedule: Q01DX010 (ip), vehicle: saline
[20] = dose: 0.25 mg/kg/injection, schedule: Q01DX010 (ip), vehicle: saline

In the case of O=P1(N(CCCl)CCCl)NCCCO1 (stereo not given), the T/C (dose: 200.0 mg/kg/injection, schedule: Q01DX001 (ip), vehicle: saline) is reported as 162 % of control and 207 % of control and the T/C (dose: 300.0 mg/kg/injection, schedule: Q01DX001 (ip), vehicle: saline) is reported as 171 % of control and 241 % of control.

In the case of O=C(O)CCCc1ccc(N(CCCl)CCCl)cc1, the T/C [1] is reported as 110 % of control and the T/C [2] is reported as 120 % of control.

With Cc1cc2nc3c(=O)[nH]c(=O)nc-3n(CC(O)C(O)C(O)C(O)CO)c2cc1C (stereo not given) the T/C [3] was 100 % of control, the T/C [4] was 100 % of control and the T/C [5] was 95 % of control. For the same compound, the T/C [6] was 91 % of control and the T/C (dose: 400.0 mg/kg/injection, schedule: Q01DX010 (ip), vehicle: saline) was 87 % of control.

With CS(=O)(=O)OCCCCOS(C)(=O)=O the T/C [2] was 95 % of control, the T/C [7] was 95 % of control and 90 % of control and the T/C [3] was 113 % of control. The T/C [4] was 109 % of control and 119 % of control.

In the case of CSc1ncnc2nc[nH]c12, the T/C [7] is reported as 100 % of control, the T/C [3] is reported as 95 % of control and the T/C [4] is reported as 100 % of control. For the same compound, the T/C [5] was 100 % of control.

In the case of Nc1nc2n[nH]nc2c(=O)[nH]1, the T/C (dose: 25.0 mg/kg/injection, schedule: Q01DX010 (ip), vehicle: alkali diluted with saline) is reported as 92 % of control and 96 % of control, the T/C (dose: 50.0 mg/kg/injection, schedule: Q01DX010 (ip), vehicle: alkali diluted with saline) is reported as 92 % of control and 96 % of control and the T/C (dose: 100.0 mg/kg/injection, schedule: Q01DX010 (ip), vehicle: alkali diluted with saline) is reported as 100 % of control and 89 % of control. The T/C (dose: 200.0 mg/kg/injection, schedule: Q01DX010 (ip), vehicle: alkali diluted with saline) was 96 % of control.

CCN(CCNc1ccc(C)c2sc3cc(Cl)ccc3c(=O)c12)CC(C)O (stereo not given) was tested, and the T/C [8] was 86 % of control, the T/C [9] was 104 % of control and 90 % of control and the T/C [10] was 95 % of control and 86 % of control. For the same compound, the T/C (dose: 250.0 mg/kg/injection, schedule: Q01DX010 (ip), vehicle: saline) was 86 % of control.

For CC[n+]1c(-c2ccccc2)c2cc(N)ccc2c2ccc(N)cc21, the T/C (dose: 1.25 mg/kg/injection, schedule: Q01DX010 (ip), vehicle: saline) was 110 % of control, the T/C (dose: 2.5 mg/kg/injection, schedule: Q01DX010 (ip), vehicle: saline) was 105 % of control and 109 % of control and the T/C (dose: 5.0 mg/kg/injection, schedule: Q01DX010 (ip), vehicle: saline) was 100 % of control and 110 % of control. The T/C [11] was 100 % of control and 110 % of control and the T/C [12] was 100 % of control.

In the case of O[C@H](CN1CC1)[C@@H](O)CN1CC1, the T/C (dose: 62.5 micrograms/kg/injection, schedule: Q01DX010 (ip), vehicle: saline) is reported as 123 % of control and the T/C (dose: 500.0 micrograms/kg/injection, schedule: Q01DX010 (ip), vehicle: saline) is reported as 173 % of control.

Nc1nc(N)c2nc(CNc3ccc(C(=O)NC(CCC(=O)O)C(=O)O)cc3)cnc2n1 (stereo not given) was tested, and the T/C (dose: 0.05 mg/kg/injection, schedule: Q01DX010 (ip), vehicle: other) was 100 % of control and 103 % of control, the T/C (dose: 0.1 mg/kg/injection, schedule: Q01DX010 (ip), vehicle: other) was 92 % of control and 100 % of control and the T/C (dose: 0.2 mg/kg/injection, schedule: Q01DX010 (ip), vehicle: other) was 100 % of control. For the same compound, the T/C (dose: 0.4 mg/kg/injection, schedule: Q01DX010 (ip), vehicle: other) was 92 % of control.

In the case of Cn1c(N)nc2nc[nH]c2c1=S, the T/C [11] is reported as 100 % of control, the T/C [12] is reported as 104 % of control and the T/C (dose: 40.0 mg/kg/injection, schedule: Q01DX010 (ip), vehicle: saline) is reported as 109 % of control. For the same compound, the T/C (dose: 80.0 mg/kg/injection, schedule: Q01DX010 (ip), vehicle: saline) was 109 % of control.

With CS(=O)(=O)OCCCl the T/C [13] was 90 % of control, the T/C [14] was 104 % of control and the T/C [15] was 90 % of control.

CN(C)c1ccc(Nc2c3ccccc3nc3ccccc23)cc1 was tested, and the T/C (dose: 36.0 mg/kg/injection, schedule: Q01DX010 (ip), vehicle: saline) was 118 % of control and the T/C (dose: 120.0 mg/kg/injection, schedule: Q01DX010 (ip), vehicle: saline) was 86 % of control.

With COc1cccc2c1C(=O)c1c(O)c3c(c(O)c1C2=O)C[C@@](O)(C(C)=O)C[C@@H]3OC1CC(N)C(O)C(C)O1 (stereo not given in full) the T/C [16] was 107 % of control and 115 % of control, the T/C [17] was 92 % of control and 111 % of control and the T/C (dose: 156.0 micrograms/kg/injection, schedule: Q01DX010 (ip), vehicle: saline) was 118 % of control. For the same compound, the T/C (dose: 313.0 micrograms/kg/injection, schedule: Q01DX010 (ip), vehicle: saline) was 118 % of control.

With S=c1nc[nH]c2nc[nH]c12 the T/C [16] was 104 % of control, the T/C [17] was 95 % of control and the T/C (dose: 5.0 mg/kg/injection, schedule: Q01DX010 (ip), vehicle: other) was 109 % of control. The T/C (dose: 10.0 mg/kg/injection, schedule: Q01DX010 (ip), vehicle: other) was 95 % of control.

In the case of O=c1c(O)cccc2cc(O)c(O)c(O)c12, the T/C [3] is reported as 90 % of control and the T/C [4] is reported as 100 % of control.

For COc1cc(C(=O)O)c2c(c1C)OC(=O)c1c(C)cc(O)c(C=O)c1O2, the T/C (dose: 8.0 mg/kg/injection, schedule: Q01DX010 (ip), vehicle: saline) was 100 % of control, the T/C (dose: 16.0 mg/kg/injection, schedule: Q01DX010 (ip), vehicle: saline) was 108 % of control and the T/C (dose: 32.0 mg/kg/injection, schedule: Q01DX010 (ip), vehicle: saline) was 95 % of control.

With CN(C)c1nc(N(C)C)nc(N(C)C)n1 the T/C [13] was 100 % of control and 109 % of control, the T/C [14] was 104 % of control and 118 % of control and the T/C [15] was 100 % of control and 109 % of control. For the same compound, the T/C (dose: 150.0 mg/kg/injection, schedule: Q01DX010 (ip), vehicle: saline) was 109 % of control and 118 % of control.

For C[C@H]1C(=O)O[C@@H]2CCN3CC=C(COC(=O)[C@](C)(O)[C@@]1(C)O)[C@H]23, the T/C [1] was 100 % of control and 103 % of control, the T/C [2] was 100 % of control and the T/C [7] was 95 % of control and 107 % of control. For the same compound, the T/C [3] was 95 % of control and 96 % of control.

N=[N+]=CC(=O)OCC(N)C(=O)O (stereo not given) was tested, and the T/C [2] was 150 % of control.

With Clc1ncnc2nc[nH]c12 the T/C (dose: 7.5 mg/kg/injection, schedule: Q01DX010 (ip), vehicle: saline) was 95 % of control and 100 % of control, the T/C (dose: 15.0 mg/kg/injection, schedule: Q01DX010 (ip), vehicle: saline) was 95 % of control and 90 % of control and the T/C [18] was 104 % of control and 90 % of control. The T/C [19] was 95 % of control.

With O=c1[nH]cc(F)c(=O)[nH]1 the T/C [12] was 159 % of control, the T/C (dose: 25.0 mg/kg/injection, schedule: Q01DX009 (ip), vehicle: saline) was 165 % of control and the T/C (dose: 30.0 mg/kg/injection, schedule: Q01DX009 (ip), vehicle: saline) was 165 % of control.

In the case of CCN(CC)CCNc1ccc(C)c2sc3ccccc3c(=O)c12, the T/C [3] is reported as 113 % of control and 118 % of control, the T/C [4] is reported as 118 % of control and 122 % of control and the T/C [5] is reported as 159 % of control and 172 % of control.

In the case of C1CN1c1nc(N2CC2)nc(N2CC2)n1, the T/C [20] is reported as 110 % of control and the T/C (dose: 0.5 mg/kg/injection, schedule: Q01DX010 (ip), vehicle: saline) is reported as 110 % of control.

For CCCSc1ncnc2nc[nH]c12, the T/C [8] was 100 % of control and 104 % of control, the T/C [9] was 100 % of control and 109 % of control and the T/C [10] was 104 % of control and 90 % of control.

CS(=O)(=O)OCCN(CCOS(C)(=O)=O)c1ccc(N=O)cc1 was tested, and the T/C [20] was 122 % of control.

With CCn1cnc2c(=S)nc[nH]c21 the T/C (dose: 15.6 mg/kg/injection, schedule: Q01DX010 (ip), vehicle: saline) was 105 % of control, the T/C [8] was 100 % of control and the T/C [9] was 105 % of control. The T/C [10] was 105 % of control.

For COc1cc2c(c3c1c(=O)c1ccccc1n3C)C=CC(C)(C)O2, the T/C (dose: 6.25 mg/kg/injection, schedule: Q01DX010 (ip), vehicle: other) was 100 % of control, the T/C (dose: 12.5 mg/kg/injection, schedule: Q01DX010 (ip), vehicle: other) was 107 % of control and the T/C (dose: 25.0 mg/kg/injection, schedule: Q01DX010 (ip), vehicle: other) was 103 % of control. The T/C (dose: 50.0 mg/kg/injection, schedule: Q01DX010 (ip), vehicle: other) was 119 % of control and the T/C (dose: 100.0 mg/kg/injection, schedule: Q01DX010 (ip), vehicle: other) was 100 % of control.

With CCCCCCCCCCCCCCCC(=O)OCC1OC(n2ccc(N)nc2=O)C(O)C1O (stereo not given) the T/C (dose: 125.0 mg/kg/injection, schedule: Q01DX001 (ip), vehicle: saline with Tween-80) was 153 % of control and 155 % of control and the T/C (dose: 150.0 mg/kg/injection, schedule: Q01DX001 (ip), vehicle: saline with Tween-80) was 151 % of control and 194 % of control.

In the case of CS(=O)(=O)OCC(O)C(O)C(O)C(O)COS(C)(=O)=O (stereo not given), the T/C [3] is reported as 100 % of control (2×) and 104 % of control, the T/C [4] is reported as 95 % of control and 100 % of control and 108 % of control and the T/C [5] is reported as 100 % of control (2×) and 109 % of control. The T/C [6] was 104 % of control.

For N#CCSc1ncnc2nc[nH]c12, the T/C [18] was 105 % of control and the T/C [19] was 110 % of control.
